US20210355105A1, “REGULATOR OF NITROGEN-CONTAINING HETEROAROMATIC DERIVATIVES, PREPARATION METHOD THEREFOR AND USE THEREOF” (Jiangsu Hansoh Pharmaceutical Group Co., Ltd., priority 2018, published 2021)

Assays:
[1] = Pharmacokinetics assay in rats, single intravenous injection; type: in vivo; conditions: male SD rats
Description: SD rats were used as test animals.
The solution was subjected to ultrasound to obtain a clear solution. The solution was filtered with a 0.22 μm water filter, and the filtrate was the formulation for intravenous administration (i.v.). The concentration was 0.2 mg/mL.
After an overnight fast, male SD rats (3 rats per group) were administered intravenously with the test compounds at an administration dose of 1 mg/kg and an administration volume of 5 mL/kg.
0.2 mL of blood was taken from jugular vein before administration and at 0 minute, 5 minutes, 15 minutes, 0.5 hour, 1.0 hour, 2.0 hours, 4.0 hours, 8.0 hours and 24.0 hours after administration. The blood samples were stored in EDTA-2K tubes, and centrifuged for 6 minutes at 6000 rpm, at 4° C. to separate the blood plasma. The plasma samples were stored at −80° C. The rats were fed four hours after administration.

[2] = Pharmacokinetics assay in MiaPaca 2 tumor-bearing mice (plasma, tumor tissue, intestine); type: in vivo; conditions: female, mouse, oral 6 mg/kg
Description: MiaPaca 2 tumor-bearing mice were used as test animals.
Twenty-four female MiaPaca 2 tumor-bearing mice were used. Three mice were used for each time point (0 hour, 1 hour, 2 hours, 4 hours, 6 hours, 8 hours, 16 hours and 24 hours). The mice were purchased from Shanghai Sippr-BK laboratory animal Co. Ltd., with Certificate No.: SCXK (Shanghai) 2018-0006.
The solution was shaked well, and subjected to ultrasound for 15 minutes to obtain a uniform suspension with a concentration of 0.6 mg/mL.
After fast, MiaPaca 2 tumor-bearing mice were administered orally (p.o.) with the test compound according to body weight at an administration dose of 6 mg/kg and an administration volume of 10 mL/kg (the animals were not administered with the test compound on 0 hour).
The mice were euthanized by CO2 before administration and after administration, and 0.5 mL of blood was taken from heart. The blood samples were stored in EDTA-2K tubes, and centrifuged for 6 minutes at 6000 rpm, at 4° C. to separate the blood plasma. The plasma samples were stored at −80° C. The tumor tissue was weighed, placed in a 2 mL centrifuge tube, and stored at −80° C. An appropriate length of duodenum, ileum and colon tissues were taken and cut open with scissors, and the contents were removed. The above tissues were washed with PBS twice, and the moisture was absorbed with absorbent paper. The tissues were weighed, placed in a 2 mL centrifuge tube, and stored at −80° C.

Nc1nc(N2CCC3(CC2)Cc2ccccc2[C@H]3N)c(F)nc1Sc1ccnc(N)c1Cl [Example 179, (S)-1′-(6-amino-5-((2-amino-3-chloropyridin-4-yl)thio)-3-fluoropyrazin-2-yl)-1,3-dihydrospiro[indene-2,4′-piperidin]-1-amine]
F ([1]; printed in the i.v. 1 mg/kg table): 118% | AUC(0-inf) ([1]; rat, iv, i.v. 1 mg/kg, plasma): 613 ng·h/mL | C0 ([1]; rat, iv, i.v. 1 mg/kg, plasma): 311 ng/mL | MRT ([1]; rat, iv, i.v. 1 mg/kg, plasma): 4.26 h | clearance ([1]; rat, iv, i.v. 1 mg/kg, plasma): 27.2 mL/min/kg | half-life ([1]; rat, iv, i.v. 1 mg/kg, plasma): 3.35 h | Vd ([1]; rat, iv, i.v. 1 mg/kg, plasma, read-out: Vss): 7 L/kg | AUC(0-inf) ([2]; Colon): 9180 ng·h/mL | Cmax ([2]; Colon): 1310 ng/mL | MRT ([2]; Colon): 5.8 h | Tmax ([2]; Colon): 4 h | half-life ([2]; Colon): 2.8 h | AUC(0-inf) ([2]; Duodenum): 16300 ng·h/mL | Cmax ([2]; Duodenum): 5420 ng/mL | MRT ([2]; Duodenum): 4.8 h | Tmax ([2]; Duodenum): 1 h | half-life ([2]; Duodenum): 4.8 h | AUC(0-inf) ([2]; Ileum): 10000 ng·h/mL | Cmax ([2]; Ileum): 1930 ng/mL | MRT ([2]; Ileum): 6.1 h | Tmax ([2]; Ileum): 2 h | half-life ([2]; Ileum): 5.3 h | AUC(0-inf) ([2]; Plasma): 2860 ng·h/mL | Cmax ([2]; Plasma): 386 ng/mL | MRT ([2]; Plasma): 7.5 h | Tmax ([2]; Plasma): 1 h | half-life ([2]; Plasma): 4.8 h | AUC(0-inf) ([2]; Tumor): 51800 ng·h/mL | Cmax ([2]; Tumor): 2390 ng/mL | MRT ([2]; Tumor): 19.1 h | Tmax ([2]; Tumor): 8 h | half-life ([2]; Tumor): 11.5 h
